This note sets out measurements from ChEMBL document CHEMBL1201862, “PubChem BioAssay data set” (2004).

Assay [1] is described as follows: CCR5-tropic HIV-1 fusion blockers – cell-based, CCR5-tropic Env, dose response (AID 2279). It is filed as functional.
The test system of assay [2] is HEK293. The assay can be described thus: EBV LMP1 TES2 canonical NF-kB signalling blockers – cell-based, HEK293, luciferase, cherry-pick, dose response (AID 588343). Format: functional. The following applies: Homo sapiens.
In assay [3] the test system is HEK293. Kind of assay: Cytotoxicity assay in HEK293 cells. [Related pubchem assays (depositor defined):AID1266, AID1269, AID1270, AID1271, AID1280, AID1281, AID1282, AID1283, AID1287, AID1289, AID1290, AID1291, AID1292, AID1293, AID1294, AID1295, AID1299, AID1302, AID1364, AID1365, AID1366, AID1367, AID1369, AID1370, AID1371, AID1372, AID1373, AID1374, AID1375, AID1384 …. It is filed as functional, cell-based. Conditions: Homo sapiens.

In assay [4] the test system is HEK293. The assay can be described thus: PMA/Ionomycin induced NF-kB luciferase assay in 293- NF-kB-Luc stable cells. [Related pubchem assays: 1299, 1270, 1295, 1375, 1287, 1281, 1293, 1291, 1289, 1280, 465, 1364, 1282, 1372, 1365, 1370, 1367, 1366, 1269, 1373, 1292, 1290, 1302, 1371, 1283, 1271, 1294, 1374, 1368, 1369 ]. Conditions: Homo sapiens. Format: functional, cell-based.

Assay [5] has as its target Luciferin 4-monooxygenase (Photinus pyralis, UniProt P08659). Kind of assay: In vitro luciferase assay using purified luciferase. [Related pubchem assays: 1299, 1270, 1295, 1375, 1287, 1281, 1293, 1291, 1289, 1280, 465, 1364, 1282, 1372, 1365, 1370, 1367, 1366, 1266, 1373, 1292, 1290, 1302, 1371, 1283, 1271, 1294, 1374, 1368, 1369 ].
Assay [6] concerns the target Prothrombin (Bos taurus, UniProt P00735). The assay can be described thus: thrombin protease inhibitors – biochemical, fluorescence polarization, uHTS hits, dose response (AID 602369). Format: functional. In general terms: In fluorescence polarisation assays a small probe gives low polarisation when free and higher when bound to something large.
Assay [7] addresses Serine/threonine-protein phosphatase (Homo sapiens, UniProt Q9BPW0). Kind of assay: Counterscreen for inhibitors of PP1: fluorescence-based biochemical high throughput dose response assay to identify inhibitors of Protein Phosphatase 5 (PP5). [Related pubchem assays: 2034 (Summary (PP5 inhibitors)), 1987 (PP5 inhibitors in singlate), 2235 (PP1 inhibitors in singlate)].
The target of assay [8] is T1, Small ubiquitin-related modifier 1 (Homo sapiens, UniProt P63165). The assay can be described thus: SUMO1 protein interaction blockers, potency – biochemical, fluorescence polarization, uHTS hits, dose response (AID 624382). Conditions: read-out: IC50_Mean. Format: functional.
T1 sequence (P63165 whole entry): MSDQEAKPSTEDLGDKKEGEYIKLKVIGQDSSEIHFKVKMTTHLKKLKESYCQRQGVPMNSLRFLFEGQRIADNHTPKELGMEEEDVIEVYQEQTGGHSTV
The target of assay [9] is 26S proteasome non-ATPase regulatory subunit 14 (Homo sapiens, UniProt O00487). The assay can be described thus: inhibition of proteasome subunit RPN11 – biochemical, fluorescence polarization, uHTS hits, confirmation (AID 602368). It is filed as functional.
Sequence of 26S proteasome non-ATPase regulatory subunit 14 (O00487 whole entry): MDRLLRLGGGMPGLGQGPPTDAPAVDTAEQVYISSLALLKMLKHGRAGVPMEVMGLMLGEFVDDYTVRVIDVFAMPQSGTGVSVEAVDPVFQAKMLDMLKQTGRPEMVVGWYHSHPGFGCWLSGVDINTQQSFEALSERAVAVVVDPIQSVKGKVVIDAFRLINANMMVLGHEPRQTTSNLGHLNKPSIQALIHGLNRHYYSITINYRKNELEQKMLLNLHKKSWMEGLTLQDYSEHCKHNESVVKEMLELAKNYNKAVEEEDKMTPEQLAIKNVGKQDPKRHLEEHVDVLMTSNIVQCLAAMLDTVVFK
The target in assay [10] is Serine/threonine-protein phosphatase PP1-alpha catalytic subunit (Homo sapiens, UniProt P62136). Kind of assay: inhibition of protein phosphatase 1 activity – biochemical, fluorescence, dose response (AID 2403).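 Further: phosphatase turnover of OMFP into fluorescent 3-O-methylfluorescein.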
Sequence of Serine/threonine-protein phosphatase PP1-alpha catalytic subunit (P62136 whole entry): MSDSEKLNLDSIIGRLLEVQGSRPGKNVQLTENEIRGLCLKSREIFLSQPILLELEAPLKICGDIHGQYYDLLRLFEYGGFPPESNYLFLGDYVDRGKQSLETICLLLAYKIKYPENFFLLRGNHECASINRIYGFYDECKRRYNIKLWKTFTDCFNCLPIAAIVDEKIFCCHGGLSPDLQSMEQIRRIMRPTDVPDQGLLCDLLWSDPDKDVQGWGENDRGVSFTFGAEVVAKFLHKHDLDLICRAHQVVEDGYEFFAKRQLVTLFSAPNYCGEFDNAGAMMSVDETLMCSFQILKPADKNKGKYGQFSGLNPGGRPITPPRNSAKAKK
For assay [11], the target named is Genome polyprotein (Hepatitis C virus, UniProt Q2Q167). Kind of assay: disruption of hepatitis C core self-association – biochemical, TR-FRET, dose response (AID 2159).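 Further: blocks dimerization of HCV core protein measured by TR-FRET between tagged core106 pairs.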 More on the design: species or system Hepacivirus hominis. In general terms: In TR-FRET formats the signal depends on donor and acceptor labels being close together.
Sequence of Genome polyprotein (Q2Q167 whole entry): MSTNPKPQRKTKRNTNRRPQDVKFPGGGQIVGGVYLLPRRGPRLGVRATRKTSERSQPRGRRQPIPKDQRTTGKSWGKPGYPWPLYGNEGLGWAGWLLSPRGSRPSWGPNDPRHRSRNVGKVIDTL
The target of assay [12] is 72 kDa type IV collagenase (Homo sapiens, UniProt P08253). Kind of assay: Dose Response validation of uHTS RPN11 inhibitor hits using a MMP-2 Fluorescence assay. It is filed as functional.
Sequence of 72 kDa type IV collagenase (P08253 whole entry): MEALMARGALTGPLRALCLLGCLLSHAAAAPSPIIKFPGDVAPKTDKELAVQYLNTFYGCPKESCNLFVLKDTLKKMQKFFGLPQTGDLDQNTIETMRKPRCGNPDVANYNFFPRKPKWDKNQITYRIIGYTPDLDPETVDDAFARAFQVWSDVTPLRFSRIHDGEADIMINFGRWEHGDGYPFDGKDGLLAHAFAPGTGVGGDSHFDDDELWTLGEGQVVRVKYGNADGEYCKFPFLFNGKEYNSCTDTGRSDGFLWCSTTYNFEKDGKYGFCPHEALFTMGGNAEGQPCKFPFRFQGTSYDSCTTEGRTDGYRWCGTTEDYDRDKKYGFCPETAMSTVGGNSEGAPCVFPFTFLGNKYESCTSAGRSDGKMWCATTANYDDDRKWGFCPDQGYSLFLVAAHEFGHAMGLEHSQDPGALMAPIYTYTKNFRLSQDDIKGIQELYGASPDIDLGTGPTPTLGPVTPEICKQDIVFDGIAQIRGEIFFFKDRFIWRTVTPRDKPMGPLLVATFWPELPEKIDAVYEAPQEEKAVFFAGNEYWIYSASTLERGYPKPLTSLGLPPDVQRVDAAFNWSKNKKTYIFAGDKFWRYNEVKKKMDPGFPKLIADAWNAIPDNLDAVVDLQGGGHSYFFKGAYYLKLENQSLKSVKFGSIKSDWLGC
Assay [13] concerns the target T1, Small ubiquitin-related modifier 1. The assay can be described thus: SUMO1 protein-protein binding blockers, potency – biochemical, FRET, dose response (AID 624383). Format: functional. Conditions: read-out: IC50_Mean.
Assay [14] in a line: cells.
Assay [15] deals with Vero. Kind of assay: host cell viability loss, Vero E6 – synthesized analogs, cytotoxicity control for West Nile virus antiviral project, SAR follow-up (AID 2244). Format: functional. The following applies: Chlorocebus sabaeus.

The source made the active and inactive calls.

Sequence of Luciferin 4-monooxygenase (P08659 whole entry): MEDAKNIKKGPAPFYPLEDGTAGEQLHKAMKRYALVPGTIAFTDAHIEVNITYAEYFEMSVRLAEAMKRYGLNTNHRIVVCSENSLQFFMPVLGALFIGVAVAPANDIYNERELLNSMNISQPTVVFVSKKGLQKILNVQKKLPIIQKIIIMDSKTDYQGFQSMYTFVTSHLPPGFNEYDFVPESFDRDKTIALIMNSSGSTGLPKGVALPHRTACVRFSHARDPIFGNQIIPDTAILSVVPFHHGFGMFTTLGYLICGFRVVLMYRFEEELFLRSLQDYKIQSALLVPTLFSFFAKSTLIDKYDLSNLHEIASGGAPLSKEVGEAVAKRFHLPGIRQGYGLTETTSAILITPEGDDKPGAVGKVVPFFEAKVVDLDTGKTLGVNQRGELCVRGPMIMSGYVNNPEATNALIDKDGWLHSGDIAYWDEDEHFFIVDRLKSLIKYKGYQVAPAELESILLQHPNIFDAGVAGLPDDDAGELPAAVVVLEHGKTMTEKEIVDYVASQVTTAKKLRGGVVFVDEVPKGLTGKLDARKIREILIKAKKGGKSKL
Sequence of Serine/threonine-protein phosphatase (Q9BPW0 whole entry): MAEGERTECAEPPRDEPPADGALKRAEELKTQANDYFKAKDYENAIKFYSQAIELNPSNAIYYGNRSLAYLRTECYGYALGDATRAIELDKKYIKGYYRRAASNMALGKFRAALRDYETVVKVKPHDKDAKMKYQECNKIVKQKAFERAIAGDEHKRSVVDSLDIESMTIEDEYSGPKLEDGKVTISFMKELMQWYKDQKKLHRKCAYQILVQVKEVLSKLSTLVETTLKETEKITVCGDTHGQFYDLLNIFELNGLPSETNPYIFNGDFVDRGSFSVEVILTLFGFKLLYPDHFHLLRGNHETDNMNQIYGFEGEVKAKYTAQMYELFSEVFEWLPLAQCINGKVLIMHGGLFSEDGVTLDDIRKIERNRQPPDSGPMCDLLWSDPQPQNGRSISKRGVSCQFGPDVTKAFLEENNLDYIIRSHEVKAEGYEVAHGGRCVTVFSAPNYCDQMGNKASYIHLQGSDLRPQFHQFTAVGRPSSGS

For `COc1ccc(C(=O)/C=C/c2cccc(OCc3ccccc3)c2)cc1CSCC(=O)O`, the IC50 in [1] is 18.7 µM (active).

What is called AC50 is the midpoint of the concentration-response curve, whichever way the signal moves. The term EC50 denotes the midpoint of the concentration-response curve. As for `COc1cc(OC)cc(-c2cc3nc(C)c(CCC(=O)O)c(C)n3n2)c1`, the half-maximal activity concentration (AC50) in [2] was 0.719 µM (active). The EC50 is > 8 µM (inactive) in assay [3], 4.19 µM (not active) in assay [4] and > 8 µM (not active) in assay [5].

With `CCOc1ccc(NC(=O)c2ccc(NC(=O)COC(=O)c3ccc(NC(=O)CC#N)cc3)cc2)cc1`, the IC50 in assay [6] is 55.4 µM (active); in [7], > 67 µM (not active); in [8], > 66.6 µM (inactive); in [9], 15.9 µM (active); in assay [10] it was 6.8 µM (active); in assay [11], > 49.8 µM (not active). Also, the IC50 in assay [12] is > 100 µM (inactive); in assay [13], 2.11 µM (active).

On to `CCOc1ccc2nc(NC(=O)C(CCSC)NS(=O)(=O)c3cccs3)sc2c1` (stereo not given), for which the IC50 in [14] is 2.48 µM (active).

By CC50 is commonly meant the concentration at which the toxic effect on the cells reaches its halfway point. For `O=C(Nc1nc(-c2ccc(Cl)cc2)cs1)c1ccc(I)cc1`, the half-maximal cytotoxic concentration (CC50) in [15] is > 40 µM (active).
